# Assay results taken from US7138361B2, “Herbicidal heterocycles” (E. I. du Pont de Nemours and Company, priority 2000, dated 2006).
# Columns and labels:
# Format in all cases: in vivo
# [1] = system: Surinam grass (Brachiaria decumbens); assay: Test B postemergence; conditions: 13 to 15 days
# Method in brief: (§1)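 Visual injury scores, 0 = no effect to 100 = complete control, assigned against controls after 13 to 15 days in the greenhouse. Compounds formulated in non-phytotoxic solvent plus surfactant and applied to soil after planting (pre) or onto foliage of 1- to 4-leaf plants (post).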
# [2] = system: barnyardgrass (Echinochloa crus-galli); assay: Test B postemergence; conditions: 13 to 15 days
# Method in brief: as §1
# [3] = system: blackgrass (Alopecurus myosuroides); assay: Test B postemergence; conditions: 13 to 15 days
# Method in brief: as §1
# [4] = system: cocklebur (Xanthium strumarium); assay: Test B postemergence; conditions: 13 to 15 days
# Method in brief: as §1
# [5] = system: corn (Zea mays); assay: Test B postemergence; conditions: 13 to 15 days
# Method in brief: as §1
# [6] = system: crabgrass (Digitaria sanguinalis); assay: Test B postemergence; conditions: 13 to 15 days
# Method in brief: as §1
# [7] = system: giant foxtail (Setaria faberii); assay: Test B postemergence; conditions: 13 to 15 days
# Method in brief: as §1
# [8] = system: lambsquarters (Chenopodium album); assay: Test B postemergence; conditions: 13 to 15 days
# Method in brief: as §1
# [9] = system: morning glory (Ipomoea hederacea); assay: Test B postemergence; conditions: 13 to 15 days
# Method in brief: as §1
# [10] = system: pigweed (Amaranthus retroflexus); assay: Test B postemergence; conditions: 13 to 15 days
# Method in brief: as §1
# [11] = system: velvetleaf (Abutilon theophrasti); assay: Test B postemergence; conditions: 13 to 15 days
# Method in brief: as §1
# [12] = system: wheat (Triticum aestivum); assay: Test B postemergence; conditions: 13 to 15 days
# Method in brief: as §1
# [13] = system: wild oat (Avena fatua); assay: Test B postemergence; conditions: 13 to 15 days
# Method in brief: as §1
# [14] = system: Surinam grass (Brachiaria decumbens); assay: Test B preemergence; conditions: scale 0 to 100, 0 no effect, 100 complete control
# Method in brief: as §1
# [15] = system: barnyardgrass (Echinochloa crus-galli); assay: Test B preemergence; conditions: scale 0 to 100, 0 no effect, 100 complete control
# Method in brief: as §1
# [16] = system: cocklebur (Xanthium strumarium); assay: Test B preemergence; conditions: Preemergence, Rate 500 g/ha; scale 0 to 100, 0 no effect, 100 complete control
# Method in brief: as §1
# [17] = system: corn (Zea mays); assay: Test B preemergence; conditions: scale 0 to 100, 0 no effect, 100 complete control
# Method in brief: as §1
# [18] = system: crabgrass (Digitaria sanguinalis); assay: Test B preemergence; conditions: scale 0 to 100, 0 no effect, 100 complete control
# Method in brief: as §1
# [19] = system: giant foxtail (Setaria faberii); assay: Test B preemergence; conditions: scale 0 to 100, 0 no effect, 100 complete control
# Method in brief: as §1
# [20] = system: lambsquarters (Chenopodium album); assay: Test B preemergence; conditions: scale 0 to 100, 0 no effect, 100 complete control
# Method in brief: as §1
# [21] = system: morning glory (Ipomoea hederacea); assay: Test B preemergence; conditions: Preemergence, Rate 500 g/ha; scale 0 to 100, 0 no effect, 100 complete control
# Method in brief: as §1
# [22] = system: pigweed (Amaranthus retroflexus); assay: Test B preemergence; conditions: Preemergence, Rate 500 g/ha; scale 0 to 100, 0 no effect, 100 complete control
# Method in brief: as §1
# [23] = system: rice (Oryza saliva); assay: Test B preemergence; conditions: Preemergence, Rate 500 g/ha; scale 0 to 100, 0 no effect, 100 complete control
# Method in brief: as §1
# [24] = system: velvetleaf (Abutilon theophrasti); assay: Test B preemergence; conditions: Preemergence, Rate 500 g/ha; scale 0 to 100, 0 no effect, 100 complete control
# Method in brief: as §1
# [25] = system: rice (Oryza saliva); assay: Test C flooded paddy test; conditions: for Rice plant response rating: Flooded Paddy, scale 0 to 100, 0 no effect, 100 complete control; for Plant response rating, Rice: flooded paddy test, scale 0 to 100 (0 no effect, 100 complete control)
# Method in brief: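 Visual injury score, 0 (no effect) to 100 (complete control), relative to controls. Paddy plants treated at 2-leaf stage; greenhouse hold 12–14 d before rating.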
# [26] = system: Sunflower; assay: Test C preemergence; conditions: Rate 125 g/ha, scale 0 to 100, 0 no effect, 100 complete control
# [27] = Rate 125 g/ha, scale 0 (no effect) to 100 (complete control)
# [28] = Rate 500 g/ha, scale 0 to 100, 0 is no effect, 100 is complete control
structure (smiles),measurement,setting,value
CC(C)(C)c1ccn(C2CCN(c3cccc(Cl)c3)C2=O)n1 (stereo not drawn) [Compound 43],"Plant response rating, Surinam grass",[1]; [27],0
same,"Plant response rating, Surinam grass",[1]; [28],0
same,"Plant response rating, Barnyardgrass",[2]; [27],0
same,"Plant response rating, Barnyardgrass",[2]; [28],70
same,"Plant response rating, Blackgrass",[3]; [27],0
same,"Plant response rating, Blackgrass",[3]; [28],0
same,"Plant response rating, Cocklebur",[4]; [27],0
same,"Plant response rating, Cocklebur",[4]; [28],0
same,"Plant response rating, Corn",[5]; [27],0
same,"Plant response rating, Corn",[5]; [28],0
same,"Plant response rating, Crabgrass",[6]; [27],0
same,"Plant response rating, Crabgrass",[6]; [28],50
same,"Plant response rating, Foxtail, Giant",[7]; [27],0
same,"Plant response rating, Foxtail, Giant",[7]; [28],0
same,"Plant response rating, Lambsquarters",[8]; [27],50
same,"Plant response rating, Lambsquarters",[8]; [28],80
same,"Plant response rating, Morningglory",[9]; [27],0
same,"Plant response rating, Morningglory",[9]; [28],0
same,"Plant response rating, Pigweed",[10]; [27],50
same,"Plant response rating, Pigweed",[10]; [28],80
same,"Plant response rating, Velvetleaf",[11]; [27],0
same,"Plant response rating, Velvetleaf",[11]; [28],0
same,"Plant response rating, Wheat",[12]; [27],0
same,"Plant response rating, Wheat",[12]; [28],0
same,"Plant response rating, Wild Oat",[13]; [27],0
same,"Plant response rating, Wild Oat",[13]; [28],0
same,"Plant response rating, Surinam grass","[14]; Preemergence, Rate 500 g/ha",20
same,"Plant response rating, Surinam grass","[14]; preemergence, Rate 125 g/ha",0
same,"Plant response rating, Barnyardgrass","[15]; Preemergence, Rate 500 g/ha",100
same,"Plant response rating, Barnyardgrass","[15]; preemergence, Rate 125 g/ha",60
same,"Plant response rating, Cocklebur",[16],0
same,"Plant response rating, Corn","[17]; Preemergence, Rate 500 g/ha",0
same,"Plant response rating, Corn","[17]; preemergence, Rate 125 g/ha",0
same,"Plant response rating, Crabgrass","[18]; Preemergence, Rate 500 g/ha",90
same,"Plant response rating, Crabgrass","[18]; preemergence, Rate 125 g/ha",0
same,"Plant response rating, Foxtail, Giant","[19]; Preemergence, Rate 500 g/ha",100
same,"Plant response rating, Foxtail, Giant","[19]; preemergence, Rate 125 g/ha",0
same,"Plant response rating, Lambsquarters","[20]; Preemergence, Rate 500 g/ha",100
same,"Plant response rating, Lambsquarters","[20]; preemergence, Rate 125 g/ha",100
same,"Plant response rating, Morningglory",[21],0
same,"Plant response rating, Pigweed",[22],100
same,"Plant response rating, Rice",[23],70
same,"Plant response rating, Velvetleaf",[24],0
same,Rice plant response rating,[25]; Rate 250 g/ha,0
same,Rice plant response rating,[25]; Rate 500 g/ha,30
same,"Plant response rating, Rice",[25]; Rate 62 g/ha,0
same,"Plant response rating, Rice",[25]; Rate 125 g/ha,0
same,"Plant response rating, Sunflower",[26],0
